Patent publication US20250134853A1, “COMPOUNDS AND METHODS FOR USING GALLOYLATED POLYPHENOLS TO TREAT DISEASES MEDIATED BY THIOL ISOMERASES” (Beth Israel Deaconess Medical Center, Inc., priority 2023, published 2025)
“Also recorded” adds a separate entry of the source. Where two headings read alike, the source gives them in different places.

Tests used:
PDI [1] = target: T1, PDI (Homo sapiens, UniProt P07237); assay: Di-eosin-GSSG disulfide reductase assay, PDI; format: biochemical
T1 construct: FLAG; made in house; host or cells: Escherichia coli Origami B (DE3)
T1 sequence (P07237 18-508): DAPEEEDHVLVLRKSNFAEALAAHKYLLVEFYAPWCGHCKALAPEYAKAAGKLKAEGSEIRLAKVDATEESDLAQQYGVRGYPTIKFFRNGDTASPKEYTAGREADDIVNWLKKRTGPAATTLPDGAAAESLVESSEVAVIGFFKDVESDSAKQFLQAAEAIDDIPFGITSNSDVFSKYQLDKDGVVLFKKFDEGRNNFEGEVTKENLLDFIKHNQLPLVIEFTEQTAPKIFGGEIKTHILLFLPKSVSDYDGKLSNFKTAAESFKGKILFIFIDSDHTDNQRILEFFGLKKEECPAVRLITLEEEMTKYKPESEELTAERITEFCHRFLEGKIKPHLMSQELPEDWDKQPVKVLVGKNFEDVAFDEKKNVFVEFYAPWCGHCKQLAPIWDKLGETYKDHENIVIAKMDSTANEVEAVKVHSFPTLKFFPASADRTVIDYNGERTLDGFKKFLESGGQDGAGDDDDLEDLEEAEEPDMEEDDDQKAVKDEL
Protocol: Di-eosin-GSSG disulfide reductase assay. The probe di-eosin glutathione disulfide, di-eosin-GSSG, was prepared by incubating 100 μM of GSSG with 1 mM of eosin isothiocyanate in 100 mM potassium phosphate containing 2 mM EDTA (pH 7.4), at 25° C. overnight in the dark. The mixture was passed down a PD-10 column and different fractions were collected. A fold change of fluorescence (Ex: 520 nm, Em: 550 nm) was calculated using samples subjected to either vehicle or 20 mM of DTT. Any fraction with a fold change >5 was kept. Using a stock of 10 mM eosin isothiocyanate, a standard curve was generated and concentration of samples were determined accordingly. Di-eosin-GSSG cleavage of purified thiol isomerases and PDI domains was monitored in a 96-well fluorescence plate format. PDI, CGXC-PDI variants, ERp5, ERp57, ERp46 and PDI domains were assayed at 50 nM in the presence or absence of the indicated small molecules. The assay included a thiol isomerase assay buffer (39 mM KH2PO4, 61 mM K2HPO4, 2 mM EDTA, 5 M DTT, pH 7.4) and 150 nM of the di-eosin-GSSG probe. The increase in fluorescence was determined for 60 min by excitation at 520 nm and emission at 550 nm in a Synergy Biotek 4. The reduction of 150 nM di-eosin-GSSG by 5 μM DTT in the presence or absence of mentioned small molecule or proteins served as a negative control.

ERp57 = target: T2, ERp57 (Homo sapiens, UniProt P30101); assay: Di-eosin-GSSG disulfide reductase assay, ERp57; format: biochemical
T2 construct: FLAG; made in house; host or cells: Escherichia coli Origami B (DE3)
T2 sequence (P30101 25-505): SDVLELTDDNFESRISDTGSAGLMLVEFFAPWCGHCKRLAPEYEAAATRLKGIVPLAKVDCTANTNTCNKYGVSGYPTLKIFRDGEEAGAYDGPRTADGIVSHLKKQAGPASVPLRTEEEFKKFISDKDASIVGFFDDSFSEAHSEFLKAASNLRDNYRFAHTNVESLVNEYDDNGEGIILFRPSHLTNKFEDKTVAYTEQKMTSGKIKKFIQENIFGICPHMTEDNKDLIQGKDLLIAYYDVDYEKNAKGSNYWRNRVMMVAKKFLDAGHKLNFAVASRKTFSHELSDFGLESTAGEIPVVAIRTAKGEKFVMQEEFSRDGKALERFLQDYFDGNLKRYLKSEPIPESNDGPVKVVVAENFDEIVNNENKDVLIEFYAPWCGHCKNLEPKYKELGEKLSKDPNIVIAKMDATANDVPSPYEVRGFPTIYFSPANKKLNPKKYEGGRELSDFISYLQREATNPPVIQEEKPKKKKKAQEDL
Text: Recombinant protein purification. Recombinant ‘double-tagged’ (streptavidin-binding protein-tagged and FLAG-tagged) full-length PDI, ERp57, recombinant His-tagged full-length ERp5, ERp72, PDI domain fragments, and PDI mutant were cloned into a pET-15b vector at the NdeI and BamHI sites and transformed into Escherichia coli Origami B (DE3) cells (EMD Chemicals). The recombinant proteins were expressed and isolated by affinity chromatography with complete His-Tag purification resin (Roche Applied Science) or Pierce High-Capacity Streptavidin Agarose beads and purified on a Superdex 200 (GE Healthcare).
Di-eosin-GSSG disulfide reductase assay. […] Any fraction with a fold change >5 was kept.

PDI [2] = target: T1, PDI; assay: Jump dilution reversibility, di-eosin-GSSG assay; format: biochemical; conditions: 50 μM, 30 min, then 100-fold dilution
Protocol: FIGS. 6A and 6B are plots showing % PDI activity. […] To test reversibility, the samples containing 50 μM compounds were then diluted 1:100. PDI activity was evaluated using a di-eosin-GSSG reductase assay. Data represented as mean SEM.
After 30 minutes of equilibration, the PDI-inhibitor mixture was diluted 100-fold with thiol isomerase assay buffer where the final concentration of enzyme is 0.2 μM and compounds at 500 nM or 50 μM. Di-eosin-GSSG was added to a final concentration of 300 nM and the assay was immediately recorded for 1 h.

SARS-CoV-2 M^pro [3] = target: T3, SARS-CoV-2 M^pro (Severe acute respiratory syndrome coronavirus 2, UniProt P0DTD1); assay: SARS-CoV-2 M^pro proteolytic activity; format: biochemical
[4] = test system: PDI mutants in which His55 and His399 were replaced; conditions: 10 μM PGHG, 15 min
Protocol: Data represented as mean±SEM.
Di-eosin-GSSG disulfide reductase assay. […] Di-eosin-GSSG cleavage of purified thiol isomerases and PDI domains was monitored in a 96-well fluorescence plate format. PDI, CGXC-PDI variants, ERp5, ERp57, ERp46 and PDI domains were assayed at 50 nM in the presence or absence of the indicated small molecules. The assay included a thiol isomerase assay buffer (39 mM KH2PO4, 61 mM K2HPO4, 2 mM EDTA, 5 M DTT, pH 7.4) and 150 nM of the di-eosin-GSSG probe. The increase in fluorescence was determined for 60 min by excitation at 520 nm and emission at 550 nm in a Synergy Biotek 4. The reduction of 150 nM di-eosin-GSSG by 5 μM DTT in the presence or absence of mentioned small molecule or proteins served as a negative control.

SARS-CoV-2 M^pro [5] = target: T3, SARS-CoV-2 M^pro; conditions: literature values (Table 2); read-out: SARS-CoV-2 M^pro inhibition; cited from earlier work
SARS-CoV-2 = conditions: cited from earlier work
[6] = test system: bleeding following tail clip; assay: Tail clip assay of hemostasis; conditions: 25 μg/g PGHG, intraperitoneal injection

O=C(O[C@@H]1[C@@H](O)[C@H](Oc2cc(O)c3c(c2)O[C@H](c2ccccc2)CC3=O)O[C@@H]2COC(=O)c3cc(O)c(O)c(O)c3-c3c(cc(O)c(O)c3O)C(=O)O[C@@H]12)c1cc(O)c(O)c(O)c1 [PGHG, pinocembrin 7-O-(3″-galloyl-4″,6″-(S)-hexahydroxydiphenoyl)-beta-D-glucose]
inhibition of PDI (in words) (PDI [1]): low micromolar range; also recorded: inhibit PDI | IC50 (PDI [1]; read-out: PDI reductase activity IC50): 1.5 ± 0.6 µM | IC50 (ERp57): 3.3 µM | reversibility of PDI inhibition (PDI [2]): inhibitory activity was lost following a 100-fold dilution | IC50 (SARS-CoV-2 M^pro [3]): 6.5 µM | susceptibility of His55/His399 PDI mutants (Ala, Asp, Arg) [4]: mutants were resistance to PGHG | IC50 (SARS-CoV-2 M^pro [5]): 6.5 µM | IC50 (SARS-CoV-2; Vero Cells, read-out: Inhibition of viral replication IC50): 5 µM | inhibition of SARS-CoV-2 / infection (in words) (SARS-CoV-2): inhibitors of SARS-CoV-2 | time to cessation of bleeding [6]: did not prolong the time to cessation of bleeding; also recorded: did not prolong the time required for bleeding to subside | total blood loss [6]: nor the total amount of blood loss; also recorded: nor did it significantly affect total blood loss
